From BindingDB's records for doi:10.1021/jm058205b (Johnson & Johnson Pharmaceutical, 2005)

Biological target: T1, Glycogen synthase kinase-3 beta [7-25] (Oryctolagus cuniculus, UniProt G1T8E2)
T1 construct: 7-25
Experiment: Kinase Inhibition Assay
Details: not given
Procedure: (§1) The enzyme was assayed with a biotinylated peptide substrate and test compounds in the presence of 5 uM ATP/[gamma-33P]ATP in a streptavidin coated FlashPlate (Perkin-Elmer, Boston, MA). Inhibition of the enzymatic activity due to the compound was measured by observing a reduced amount of 33P-gamma-ATP incorporated into the immobilized peptide relative to untreated controls. Linear regression analysis of the percent of inhibition by the test compound was used to calculate IC50 values.

SMILES | IC50
CN(C)CCNc1cncc(-c2cncc(Nc3cccc(Cl)c3)n2)c1 [N-{5-[6-(3-Chloro-phenylamino)-pyrazin-2-yl]-pyridin-3-yl}-N ,N -dimethyl-ethane-1,2-diamine] | > 10 µM

Biological target: Cyclin-dependent kinase/G2/mitotic-specific cyclin- 1 (Homo sapiens, UniProt P06493)
Sequence (P06493 whole entry): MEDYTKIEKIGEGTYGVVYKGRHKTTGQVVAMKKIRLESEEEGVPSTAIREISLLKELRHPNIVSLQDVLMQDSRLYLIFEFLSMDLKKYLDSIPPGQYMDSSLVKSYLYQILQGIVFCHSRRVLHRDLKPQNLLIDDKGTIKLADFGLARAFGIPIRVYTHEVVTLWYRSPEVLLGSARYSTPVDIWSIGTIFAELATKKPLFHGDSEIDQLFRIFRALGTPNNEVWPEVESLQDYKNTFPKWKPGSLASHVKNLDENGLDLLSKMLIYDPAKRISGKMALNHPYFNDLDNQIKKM
Sequence (P14635 whole entry, further chain): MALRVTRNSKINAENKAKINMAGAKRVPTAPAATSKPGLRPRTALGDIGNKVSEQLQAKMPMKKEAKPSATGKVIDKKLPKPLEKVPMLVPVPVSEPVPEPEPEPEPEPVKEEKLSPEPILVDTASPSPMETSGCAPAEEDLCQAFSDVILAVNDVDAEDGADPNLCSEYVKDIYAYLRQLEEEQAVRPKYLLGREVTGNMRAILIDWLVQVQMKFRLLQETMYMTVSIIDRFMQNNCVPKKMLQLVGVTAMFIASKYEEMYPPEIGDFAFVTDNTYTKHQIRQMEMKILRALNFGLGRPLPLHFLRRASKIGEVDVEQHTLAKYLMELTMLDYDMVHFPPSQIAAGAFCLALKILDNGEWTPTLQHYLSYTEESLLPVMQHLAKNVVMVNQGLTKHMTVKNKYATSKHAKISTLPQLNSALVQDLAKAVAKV
Experiment: Kinase Inhibition Assay
Details: not given
Procedure: as §1

SMILES | IC50
Nc1ncc(NCCCO)cc1-c1cncc(Nc2cccc(Cl)c2)n1 [3-[(6-amino-5-{6-[(3-chlorophenyl)amino]pyrazin-2-yl}pyridin-3-yl)amino]propan-1-ol] | > 10 µM
OCCCNc1cnc(Cl)c(-c2cncc(Nc3cccc(Cl)c3)n2)c1 [3-[(6-chloro-5-{6-[(3-chlorophenyl)amino]pyrazin-2-yl}pyridin-3-yl)amino]propan-1-ol] | > 10 µM
OCCCNc1cncc(-c2cncc(Nc3cccc(Cl)c3)n2)c1 [3-[[5-[6-[(3-chlorophenyl)amino]pyrazinyl]-3-pyridinyl]amino]-1-propanol] | > 10 µM
OCCCNc1cnc(F)c(-c2cncc(Nc3cccc(Cl)c3)n2)c1 [3-{5-[6-(3-Chloro-phenylamino)-pyrazin-2-yl]-6-fluoropyridin-3-ylamino}-propan-1-ol] | > 10 µM
O=C(CCCNc1cncc(-c2cncc(Nc3cccc(Cl)c3)n2)c1)N1CCCCC1 [4-[(5-{6-[(3-chlorophenyl)amino]pyrazin-2-yl}pyridin-3-yl)amino]-1-(piperidin-1-yl)butan-1-one] | > 10 µM
Clc1cccc(Nc2cncc(-c3cncc(NCCOc4ccccc4)c3)n2)c1 [(3-Chloro-phenyl)-{6-[5-(2-phenoxy-ethylamino)-pyridin-3-yl]-pyrazin-2-yl}-amine] | > 10 µM
Clc1cccc(Nc2cncc(-c3cncc(NCCCn4cccn4)c3)n2)c1 [N-(3-Chlorophenyl)-6-[5-[[3-(1H-pyrazol-1-yl)propyl]-amino]-3-pyridinyl]-2-pyrazinamine] | > 10 µM
Clc1cccc(Nc2cncc(-c3cncc(NCCCn4cncn4)c3)n2)c1 [N-(3-chlorophenyl)-6-(5-{[3-(1H-1,2,4-triazol-1-yl)propyl]amino}pyridin-3-yl)pyrazin-2-amine] | > 10 µM
CN1CCN(CCCNc2cncc(-c3cncc(Nc4cccc(Cl)c4)n3)c2)CC1 [N-(3-chlorophenyl)-6-(5-{[3-(4-methylpiperazin-1-yl)propyl]amino}pyridin-3-yl)pyrazin-2-amine] | > 10 µM
Clc1cccc(Nc2cncc(-c3cncc(NCCCc4ccccc4)c3)n2)c1 [N-(3-chlorophenyl)-6-{5-[(3-phenylpropyl)amino]pyridin-3-yl}pyrazin-2-amine] | > 10 µM
Clc1cccc(Nc2cncc(-c3cncc(NCC4CCOCC4)c3)n2)c1 [N-(3-chlorophenyl)-6-{5-[(oxan-4-ylmethyl)amino]pyridin-3-yl}pyrazin-2-amine] | > 10 µM
COCCC(=O)Nc1cncc(-c2cncc(Nc3cccc(Cl)c3)n2)c1 [N-(5-{6-[(3-chlorophenyl)amino]pyrazin-2-yl}pyridin-3-yl)-3-methoxypropanamide] | > 10 µM
CN(C)c1ccc(C(=O)Nc2cncc(-c3cncc(Nc4cccc(Cl)c4)n3)c2)cc1 [N-(5-{6-[(3-chlorophenyl)amino]pyrazin-2-yl}pyridin-3-yl)-4-(dimethylamino)benzamide] | > 10 µM
Clc1cccc(Nc2cncc(-c3cncc(NCCCN4CCOCC4)c3)n2)c1 [N-[5-[6-[(3-Chlorophenyl)amino]pyrazinyl]-3-pyridinyl]-4-morpholinepropanamine] | > 10 µM
O=C(COCc1ccccc1)Nc1cncc(-c2cncc(Nc3cccc(Cl)c3)n2)c1 [N-{5-[6-(3-Chloro-phenylamino)-pyrazin-2-yl]-pyridin-3-yl}-2-benzyloxy-acetamide] | > 10 µM
O=C(CO)Nc1cncc(-c2cncc(Nc3cccc(Cl)c3)n2)c1 [N-{5-[6-(3-Chloro-phenylamino)-pyrazin-2-yl]-pyridin-3-yl}-2-hydroxy-acetamide] | > 10 µM
COCC(=O)Nc1cncc(-c2cncc(Nc3cccc(Cl)c3)n2)c1 [N-{5-[6-(3-Chloro-phenylamino)-pyrazin-2-yl]-pyridin-3-yl}-2-methoxy-acetamide] | > 10 µM
O=C(COc1ccccc1)Nc1cncc(-c2cncc(Nc3cccc(Cl)c3)n2)c1 [N-{5-[6-(3-Chloro-phenylamino)-pyrazin-2-yl]-pyridin-3-yl}-2-phenoxy-acetamide] | > 10 µM

The remaining lines, values ahead:

IC50 | SMILES
> 10 µM | OCCNc1cncc(-c2cncc(Nc3cccc(Cl)c3)n2)c1 [2-{5-[6-(3-Chloro-phenylamino)-pyrazin-2-yl]-pyridin-3-ylamino}-ethanol]
> 10 µM | OCCCCNc1cncc(-c2cncc(Nc3cccc(Cl)c3)n2)c1 [4-[(5-{6-[(3-chlorophenyl)amino]pyrazin-2-yl}pyridin-3-yl)amino]butan-1-ol]
> 10 µM | O=C(NCCCO)c1cncc(-c2cncc(Nc3cccc(Cl)c3)n2)c1 [5-[6-(3-Chloro-phenylamino)-pyrazin-2-yl]-N-(3-hydroxy-propyl)-nicotinamide]
> 10 µM | CN(C)CCCNc1cncc(-c2cncc(Nc3cccc(Cl)c3)n2)c1 [N-(3-chlorophenyl)-6-(5-{[3-(dimethylamino)propyl]amino}pyridin-3-yl)pyrazin-2-amine]
> 10 µM | CN(C)CCNc1cncc(-c2cncc(Nc3cccc(Cl)c3)n2)c1 [N-{5-[6-(3-Chloro-phenylamino)-pyrazin-2-yl]-pyridin-3-yl}-N ,N -dimethyl-ethane-1,2-diamine]

Same assay, conditions: pH 8; 30 °C

SMILES | IC50
Clc1ccc(Nc2cncc(-c3cncc(NCCCc4ccncc4)c3)n2)cc1 [(4-Chloro-phenyl)-{6-[5-(3-pyridin-4-yl-propylamino)pyridin-3-yl]-pyrazin-2-yl}-amine] | > 10 µM
Clc1ccc(Nc2cncc(-c3cncc(NCCCc4ccncc4)c3)n2)cc1Cl [N-(3,4-dichlorophenyl)-6-(5-{[3-(pyridin-4-yl)propyl]amino}pyridin-3-yl)pyrazin-2-amine] | > 10 µM
Clc1cccc(Nc2cncc(-c3cncc(NCCCc4ccncc4)c3)n2)c1 [N-(3-chlorophenyl)-6-(5-{[3-(pyridin-4-yl)propyl]amino}pyridin-3-yl)pyrazin-2-amine] | > 10 µM
Nc1cncc(-c2cncc(Nc3cccc(Cl)c3)n2)c1 [[6-(5-Amino-pyridin-3-yl)-pyrazin-2-yl]-(3-chloro-phenyl)-amine] | > 10 µM

The remaining lines, values ahead:

IC50 | SMILES
> 10 µM | OCCCNc1cncc(-c2cncc(Oc3cccc(Cl)c3)n2)c1 [3-({5-[6-(3-chlorophenoxy)pyrazin-2-yl]pyridin-3-yl}amino)propan-1-ol]
> 10 µM | OCCCNc1cncc(-c2cncc(NCc3ccccc3)n2)c1 [3-[5-(6-Benzylamino-pyrazin-2-yl)-pyridin-3-yl-amino]-propan-1-ol]
> 10 µM | OCCCNc1cncc(-c2cncc(Nc3cccc(F)c3)n2)c1 [3-[(5-{6-[(3-fluorophenyl)amino]pyrazin-2-yl}pyridin-3-yl)amino]propan-1-ol]
> 10 µM | COc1cccc(Nc2cncc(-c3cncc(NCCCO)c3)n2)c1 [3-[[5-[6-[(3-Methoxyphenyl)amino]pyrazinyl]-3-pyridinyl]-1-propanol]
> 10 µM | OCCCNc1cncc(-c2cncc(Nc3ccccc3Cl)n2)c1 [3-{5-[6-(2-Chloro-phenylamino)-pyrazin-2-yl]-pyridin-3-ylamino}-propan-1-ol]

Biological target: Platelet-derived growth factor receptor beta (Homo sapiens, UniProt P09619)
Sequence (P09619 whole entry): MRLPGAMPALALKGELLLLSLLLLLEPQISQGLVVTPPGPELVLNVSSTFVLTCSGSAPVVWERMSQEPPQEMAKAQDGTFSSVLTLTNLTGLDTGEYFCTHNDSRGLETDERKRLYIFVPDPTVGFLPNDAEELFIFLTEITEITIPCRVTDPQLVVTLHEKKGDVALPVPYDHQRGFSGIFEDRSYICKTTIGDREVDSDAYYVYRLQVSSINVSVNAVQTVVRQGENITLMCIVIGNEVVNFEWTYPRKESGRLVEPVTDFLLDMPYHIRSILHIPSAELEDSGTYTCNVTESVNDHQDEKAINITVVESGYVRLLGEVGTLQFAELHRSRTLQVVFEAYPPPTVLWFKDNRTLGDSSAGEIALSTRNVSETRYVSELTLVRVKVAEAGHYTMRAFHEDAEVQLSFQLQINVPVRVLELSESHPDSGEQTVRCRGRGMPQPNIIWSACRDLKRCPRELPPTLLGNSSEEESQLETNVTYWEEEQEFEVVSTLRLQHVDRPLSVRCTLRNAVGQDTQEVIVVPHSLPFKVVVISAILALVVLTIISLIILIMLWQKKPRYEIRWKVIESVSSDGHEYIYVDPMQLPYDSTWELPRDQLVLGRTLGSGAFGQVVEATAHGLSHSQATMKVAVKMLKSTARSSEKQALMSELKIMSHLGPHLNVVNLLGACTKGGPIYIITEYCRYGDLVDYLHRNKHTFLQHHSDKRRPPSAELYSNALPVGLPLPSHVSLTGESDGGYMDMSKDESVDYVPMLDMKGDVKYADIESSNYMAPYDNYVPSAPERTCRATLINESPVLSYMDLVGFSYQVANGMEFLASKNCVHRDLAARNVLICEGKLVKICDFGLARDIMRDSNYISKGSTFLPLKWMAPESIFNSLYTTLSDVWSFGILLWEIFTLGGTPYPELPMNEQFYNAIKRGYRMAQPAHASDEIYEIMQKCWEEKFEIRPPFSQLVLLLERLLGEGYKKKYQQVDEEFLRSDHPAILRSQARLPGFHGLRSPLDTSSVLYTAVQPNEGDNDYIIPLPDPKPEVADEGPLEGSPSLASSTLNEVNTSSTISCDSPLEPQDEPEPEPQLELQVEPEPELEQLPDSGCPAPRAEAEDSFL
Experiment: Kinase Inhibition Assay
Details: not given
Procedure: as §1

SMILES | IC50
CN(C)CCNc1cncc(-c2cncc(Nc3cccc(Cl)c3)n2)c1 [N-{5-[6-(3-Chloro-phenylamino)-pyrazin-2-yl]-pyridin-3-yl}-N ,N -dimethyl-ethane-1,2-diamine] | > 10 µM

Biological target: Vascular endothelial growth factor receptor 2 (Rattus norvegicus, UniProt O08775)
Sequence (O08775 whole entry): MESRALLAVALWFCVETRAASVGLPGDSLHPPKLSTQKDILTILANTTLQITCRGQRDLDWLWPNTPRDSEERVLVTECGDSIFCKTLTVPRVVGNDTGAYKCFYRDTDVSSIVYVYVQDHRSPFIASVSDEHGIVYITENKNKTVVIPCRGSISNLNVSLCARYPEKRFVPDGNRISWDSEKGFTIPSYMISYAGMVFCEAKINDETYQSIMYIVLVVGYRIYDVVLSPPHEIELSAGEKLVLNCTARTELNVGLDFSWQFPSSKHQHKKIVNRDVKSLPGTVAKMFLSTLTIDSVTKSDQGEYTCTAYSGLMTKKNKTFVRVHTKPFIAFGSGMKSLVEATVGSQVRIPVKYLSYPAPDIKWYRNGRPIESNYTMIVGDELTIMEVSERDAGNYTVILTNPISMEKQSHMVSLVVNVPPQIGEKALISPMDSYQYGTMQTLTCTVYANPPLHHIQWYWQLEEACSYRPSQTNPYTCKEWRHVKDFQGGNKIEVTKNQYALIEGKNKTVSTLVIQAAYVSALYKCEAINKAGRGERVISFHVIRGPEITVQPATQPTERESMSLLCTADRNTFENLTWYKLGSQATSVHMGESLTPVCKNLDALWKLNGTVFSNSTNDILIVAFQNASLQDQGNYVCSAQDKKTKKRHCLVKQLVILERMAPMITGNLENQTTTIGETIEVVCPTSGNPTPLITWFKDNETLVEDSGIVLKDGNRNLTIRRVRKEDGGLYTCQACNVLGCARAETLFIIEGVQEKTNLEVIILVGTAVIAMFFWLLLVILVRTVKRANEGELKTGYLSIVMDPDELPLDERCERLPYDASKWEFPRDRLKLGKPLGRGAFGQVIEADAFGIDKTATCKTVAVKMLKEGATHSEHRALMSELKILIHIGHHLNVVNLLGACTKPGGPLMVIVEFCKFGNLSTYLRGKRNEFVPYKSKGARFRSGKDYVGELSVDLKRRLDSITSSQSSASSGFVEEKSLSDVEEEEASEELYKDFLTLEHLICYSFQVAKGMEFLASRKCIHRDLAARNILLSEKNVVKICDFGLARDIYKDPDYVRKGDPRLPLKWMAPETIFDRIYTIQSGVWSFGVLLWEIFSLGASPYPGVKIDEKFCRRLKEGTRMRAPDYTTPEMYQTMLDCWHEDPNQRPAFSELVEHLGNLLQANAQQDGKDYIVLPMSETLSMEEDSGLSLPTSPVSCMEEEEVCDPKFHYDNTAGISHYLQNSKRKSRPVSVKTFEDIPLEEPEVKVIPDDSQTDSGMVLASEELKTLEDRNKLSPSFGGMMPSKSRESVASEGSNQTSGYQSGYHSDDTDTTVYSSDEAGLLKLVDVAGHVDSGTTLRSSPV
Experiment: Kinase Inhibition Assay
Details: not given
Procedure: as §1

SMILES | IC50
CN(C)c1ccc(C(=O)Nc2cncc(-c3cncc(Nc4cccc(Cl)c4)n3)c2)cc1 [N-(5-{6-[(3-chlorophenyl)amino]pyrazin-2-yl}pyridin-3-yl)-4-(dimethylamino)benzamide] | > 10 µM
